Laboratory results published in US12552758B2, “Inhibitors of MLH1 and/or PMS2 for cancer treatment” (NeoPhore Limited, priority 2020, dated 2026).

Key:
[1] = biological target: T1, recombinant N-terminal MLH1 (residues 15-340) (Homo sapiens (Human), UniProt P40692); assay: Fluorescence polarisation assay for MLH1 (protocol for Examples 64, 76, 90 and 95); conditions: FP probe displacement, 100 nM N-terminal MLH1, 5 nM probe compound, non-binding surface plate, read immediately
Procedure: Fluorescence Polarisation Assay for MLH1 (Protocol for Examples 64, 76, 90 and 95)
Test compounds, as 10 mM DMSO stocks, were dispensed into a 384-well Low Flange Black Flat Bottom Polystyrene Non-binding Surface plate (Corning®, item number 3575) using a Labcyte Echo acoustic liquid handler. Test compounds were added to wells in columns 1-22 whilst DMSO was added to wells in columns 23 and 24 in order to normalise the plate. 20 μL of a 2× solution (200 nM) of recombinant N-terminal MLH1 (residues 15-340) in assay buffer (25 mM HEPES, pH 7.5, 250 mM NaCl, 10 mM MgCl2, 0.01% Triton X-100, 5 mM dithiothreitol) was added to all wells in columns 1-23 and 20 μL assay buffer was added to all wells in column 24 using an E1-ClipTip pipette (ThermoFisher). Plates were centrifuged for 1 minute at 250×g and were incubated at room temperature for 30 minutes prior to the addition of 20 μL of 2×(10 nM) 5-((5-(4-((2-(2,4-dihydroxy-5-isopropylbenzoyl)isoindolin-5-yl)methyl)piperazin-1-yl)pentyl)carbamoyl)-2-(6-(dimethylamino)-3-(dimethyliminio)-3H-xanthen-9-yl)benzoate in assay buffer (prepared from a 1 mM DMSO stock) with an E1-ClipTip pipette (ThermoFisher). The final concentration of N-terminal MLH1 was 100 nM and the final concentration of the probe compound was 5 nM. Compound plates were centrifuged for 1 minute at 250 xg for 1 minute and immediately read on a PheraStar FSX (fitted with 384-well aperture spoon and 590 675 675 FP optic module). The gain and focus were adjusted before each plate was read so that the polarisation of a no enzyme control (column 24) was equal to 35 mP. Data were normalised against the no inhibitor controls (column 23) and no enzyme controls (column 24).

[2] = biological target: recombinant N-terminal PMS2 (residues 1-365) (Homo sapiens (Human), UniProt P54278); assay: Fluorescence polarisation assay for PMS2; format: binding; conditions: FP probe displacement; 10 nM N-terminal PMS2, 5 nM probe compound, read after 1 hour
recombinant N-terminal PMS2 (residues 1-365), sequence (P54278 1-365): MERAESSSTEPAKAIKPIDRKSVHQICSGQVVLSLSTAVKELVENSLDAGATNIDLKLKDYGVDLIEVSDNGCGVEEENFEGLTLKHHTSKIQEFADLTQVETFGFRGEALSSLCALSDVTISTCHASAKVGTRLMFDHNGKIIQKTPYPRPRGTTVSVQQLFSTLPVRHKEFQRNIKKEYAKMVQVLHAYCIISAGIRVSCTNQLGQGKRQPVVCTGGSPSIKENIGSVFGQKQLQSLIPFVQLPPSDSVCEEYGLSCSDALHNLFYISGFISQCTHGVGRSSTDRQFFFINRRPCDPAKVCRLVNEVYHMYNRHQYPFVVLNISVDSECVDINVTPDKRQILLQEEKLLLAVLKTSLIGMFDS
Outline: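 Competitive fluorescence polarisation with 10 nM N-terminal PMS2 and 5 nM final rhodamine-labelled resorcinol probe. Compound is pre-incubated with protein 30 min at room temperature, then probe added and read after 1 h. Values are normalised to no-inhibitor and no-enzyme controls.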

[3] = biological target: T1, recombinant N-terminal MLH1 (residues 15-340); assay: Fluorescence polarisation assay for MLH1 (protocol for all Examples except Examples 64, 76, 90 and 95); format: binding; conditions: FP probe displacement; 100 nM N-terminal MLH1, 5 nM probe compound, read after 15 minutes; all Examples except 64, 76, 90 and 95
Outline: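 N-terminal MLH1 (100 nM final) preincubated with compounds 30 min at room temperature, then rhodamine-labelled resorcinol probe added (5 nM final); fluorescence polarisation read after 15 min. Signal normalised to no-inhibitor and no-enzyme controls; serial dilutions for potency, single concentration for screening.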

T1 sequence (P40692 15-340): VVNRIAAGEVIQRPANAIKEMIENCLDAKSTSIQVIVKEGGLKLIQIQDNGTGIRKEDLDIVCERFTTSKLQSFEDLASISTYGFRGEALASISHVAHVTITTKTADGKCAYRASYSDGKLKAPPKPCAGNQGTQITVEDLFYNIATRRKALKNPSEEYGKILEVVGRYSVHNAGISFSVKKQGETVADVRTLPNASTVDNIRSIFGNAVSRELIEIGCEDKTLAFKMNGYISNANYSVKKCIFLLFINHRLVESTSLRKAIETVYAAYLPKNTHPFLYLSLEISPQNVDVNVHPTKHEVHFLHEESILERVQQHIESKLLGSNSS

Row | SMILES | IC50 [1] | IC50 [2] | IC50 [3]
1 | Cc1c(O)cc(O)c(C(=O)N2Cc3ccccc3C[C@@H]2CO)c1OCc1ccccc1 [Example 64, (R)-(2-(benzyloxy)-4,6-dihydroxy-3-methylphenyl)(3-(hydroxymethyl)-3,4-dihydroisoquinolin-2(1H)-yl)methanone] | > 10 µM | 1 to 10 µM | 
2 | Cc1c(O)cc(O)c(C(=O)N2Cc3cccc(CN4CCOCC4)c3C2)c1OCc1ccccc1 [Example 76, (2-(Benzyloxy)-4,6-dihydroxy-3-methylphenyl)(4-(morpholinomethyl)isoindolin-2-yl)methanone] | > 10 µM | 1 to 10 µM | 
3 | Cc1c(O)cc(O)c(C(=O)N2Cc3cccc(OCc4cncnc4)c3C2)c1OCc1ccccc1 [Example 90, (2-(Benzyloxy)-4,6-dihydroxy-3-methylphenyl)(4-(pyrimidin-5-ylmethoxy)isoindolin-2-yl)methanone] | > 10 µM | < 1 µM | 
4 | CCOc1c(C)c(O)cc(O)c1C(=O)N1Cc2ccc(CN3CCN(C)CC3)cc2C1 [Example 93, (2-Ethoxy-4,6-dihydroxy-3-methylphenyl)(5-((4-methylpiperazin-1-yl)methyl)isoindolin-2-yl)methanone] |  | < 1 µM | > 10 µM

The next lines start with the values.

Row | IC50 [1] | IC50 [2] | IC50 [3] | SMILES
5 |  | < 1 µM | > 10 µM | Cc1c(O)cc(O)c(C(=O)N2Cc3ccc(CN4CCN(C)CC4)cc3C2)c1OCC1CCCCC1 [Example 94, (2-(Cyclohexylmethoxy)-4,6-dihydroxy-3-methylphenyl)(5-((4-methylpiperazin-1-yl)methyl)isoindolin-2-yl)methanone]
6 | > 10 µM | < 1 µM |  | Cc1c(O)cc(O)c(C(=O)N2Cc3ccc(CN4CCN(C)CC4)cc3C2)c1OCC1CC1 [Example 95, (2-(Cyclopropylmethoxy)-4,6-dihydroxy-3-methylphenyl)(5-((4-methylpiperazin-1-yl)methyl)isoindolin-2-yl)methanone]
